From ChEMBL document CHEMBL1697781, “Assessment of the health effects of chemicals in humans: II. Construction of an adverse effects database for QSAR modeling” (Curr Drug Discov Technol, 2004)

System: Hepatotoxicity
Experiment: FDA HLAED, liver enzyme composite activity
Settings: human
For GGT Increase - Index Value in this document: reference of the scale not given here.
For LDH Increase - Index Value in this document: reference of the scale not given here.

Compound | Composite Activity - Active | Composite Activity - Marginal | Composite Activity - Score
CC(C)C[C@H]1C(=O)N2CCC[C@H]2[C@]2(O)O[C@](NC(=O)[C@@H]3C=C4c5cccc6[nH]c(Br)c(c56)C[C@H]4N(C)C3)(C(C)C)C(=O)N12 [BROMOCRIPTINE] | 0 | 0 | Inactive
CCCC1O[C@@H]2C[C@H]3[C@@H]4CCC5=CC(=O)C=C[C@]5(C)[C@H]4[C@@H](O)C[C@]3(C)[C@]2(C(=O)CO)O1 (stereo partly drawn) [BUDESONIDE] | 0 | 0 | Inactive
CCCCNc1cc(C(=O)O)cc(S(N)(=O)=O)c1Oc1ccccc1 [BUMETANIDE] | 0 | 0 | Inactive
CO[C@]12CC[C@@]3(C[C@@H]1[C@](C)(O)C(C)(C)C)[C@H]1Cc4ccc(O)c5c4[C@@]3(CCN1CC1CC1)[C@H]2O5 [BUPRENORPHINE] | 0 | 0 | Inactive
CC(NC(C)(C)C)C(=O)c1cccc(Cl)c1 (stereo not drawn) [BUPROPION] | 0 | 0 | Inactive

Same assay, conditions: human, Liver

Compound | Composite Activity - Active | Composite Activity - Marginal | Composite Activity - Score
Brc1c(NC2=NCCN2)ccc2nccnc12 [BRIMONIDINE] | 0 | 0 | Inactive

System: Hepatotoxicity
Experiment: FDA HLAED, serum glutamic oxaloacetic transaminase (SGOT) increase
Settings: human

Compound | SGOT Increase - Activity Score | SGOT Increase - Index Value | SGOT Increase - Number of Reports
Brc1c(NC2=NCCN2)ccc2nccnc12 [BRIMONIDINE] | Inactive | 1.1 | < 4
CC(C)C[C@H]1C(=O)N2CCC[C@H]2[C@]2(O)O[C@](NC(=O)[C@@H]3C=C4c5cccc6[nH]c(Br)c(c56)C[C@H]4N(C)C3)(C(C)C)C(=O)N12 [BROMOCRIPTINE] | Inactive | 0 | < 4
CCCC1O[C@@H]2C[C@H]3[C@@H]4CCC5=CC(=O)C=C[C@]5(C)[C@H]4[C@@H](O)C[C@]3(C)[C@]2(C(=O)CO)O1 (stereo partly drawn) [BUDESONIDE] | Inactive | 0 | < 4
CCCCNc1cc(C(=O)O)cc(S(N)(=O)=O)c1Oc1ccccc1 [BUMETANIDE] | Inactive | 0 | < 4
CO[C@]12CC[C@@]3(C[C@@H]1[C@](C)(O)C(C)(C)C)[C@H]1Cc4ccc(O)c5c4[C@@]3(CCN1CC1CC1)[C@H]2O5 [BUPRENORPHINE] | Inactive | 0 | < 4
CC(NC(C)(C)C)C(=O)c1cccc(Cl)c1 (stereo not drawn) [BUPROPION] | Inactive | 0 | < 4

System: Hepatotoxicity
Experiment: FDA HLAED, alkaline phosphatase increase
Settings: human

Compound | Alkaline Phosphatase Increase - Activity Score | Alkaline Phosphatase Increase - Index Value | Alkaline Phosphatase Increase - Number of Reports
Brc1c(NC2=NCCN2)ccc2nccnc12 [BRIMONIDINE] | Inactive | 0 | < 4
CC(C)C[C@H]1C(=O)N2CCC[C@H]2[C@]2(O)O[C@](NC(=O)[C@@H]3C=C4c5cccc6[nH]c(Br)c(c56)C[C@H]4N(C)C3)(C(C)C)C(=O)N12 [BROMOCRIPTINE] | Inactive | 0 | < 4
CCCC1O[C@@H]2C[C@H]3[C@@H]4CCC5=CC(=O)C=C[C@]5(C)[C@H]4[C@@H](O)C[C@]3(C)[C@]2(C(=O)CO)O1 (stereo partly drawn) [BUDESONIDE] | Inactive | 0.2 | < 4
CCCCNc1cc(C(=O)O)cc(S(N)(=O)=O)c1Oc1ccccc1 [BUMETANIDE] | Inactive | 0 | < 4
CO[C@]12CC[C@@]3(C[C@@H]1[C@](C)(O)C(C)(C)C)[C@H]1Cc4ccc(O)c5c4[C@@]3(CCN1CC1CC1)[C@H]2O5 [BUPRENORPHINE] | Inactive | 0 | < 4
CC(NC(C)(C)C)C(=O)c1cccc(Cl)c1 (stereo not drawn) [BUPROPION] | Inactive | 0 | < 4

System: Hepatotoxicity
Experiment: FDA HLAED, lactate dehydrogenase (LDH) increase
Settings: human

Compound | LDH Increase - Activity Score | LDH Increase - Index Value | LDH Increase - Number of Reports
Brc1c(NC2=NCCN2)ccc2nccnc12 [BRIMONIDINE] | Inactive | 0 | < 4
CC(C)C[C@H]1C(=O)N2CCC[C@H]2[C@]2(O)O[C@](NC(=O)[C@@H]3C=C4c5cccc6[nH]c(Br)c(c56)C[C@H]4N(C)C3)(C(C)C)C(=O)N12 [BROMOCRIPTINE] | Inactive | 0 | < 4
CCCC1O[C@@H]2C[C@H]3[C@@H]4CCC5=CC(=O)C=C[C@]5(C)[C@H]4[C@@H](O)C[C@]3(C)[C@]2(C(=O)CO)O1 (stereo partly drawn) [BUDESONIDE] | Inactive | 0 | < 4
CCCCNc1cc(C(=O)O)cc(S(N)(=O)=O)c1Oc1ccccc1 [BUMETANIDE] | Inactive | 0 | < 4
CO[C@]12CC[C@@]3(C[C@@H]1[C@](C)(O)C(C)(C)C)[C@H]1Cc4ccc(O)c5c4[C@@]3(CCN1CC1CC1)[C@H]2O5 [BUPRENORPHINE] | Inactive | 0 | < 4
CC(NC(C)(C)C)C(=O)c1cccc(Cl)c1 (stereo not drawn) [BUPROPION] | Inactive | 0 | < 4

System: Hepatotoxicity
Experiment: FDA HLAED, gamma-glutamyl transferase (GGT) increase
Settings: human

Compound | GGT Increase - Activity Score | GGT Increase - Index Value | GGT Increase - Number of Reports
Brc1c(NC2=NCCN2)ccc2nccnc12 [BRIMONIDINE] | Inactive | 0 | < 4
CC(C)C[C@H]1C(=O)N2CCC[C@H]2[C@]2(O)O[C@](NC(=O)[C@@H]3C=C4c5cccc6[nH]c(Br)c(c56)C[C@H]4N(C)C3)(C(C)C)C(=O)N12 [BROMOCRIPTINE] | Inactive | 0 | < 4
CCCC1O[C@@H]2C[C@H]3[C@@H]4CCC5=CC(=O)C=C[C@]5(C)[C@H]4[C@@H](O)C[C@]3(C)[C@]2(C(=O)CO)O1 (stereo partly drawn) [BUDESONIDE] | Inactive | 0 | < 4
CCCCNc1cc(C(=O)O)cc(S(N)(=O)=O)c1Oc1ccccc1 [BUMETANIDE] | Inactive | 0 | < 4
CO[C@]12CC[C@@]3(C[C@@H]1[C@](C)(O)C(C)(C)C)[C@H]1Cc4ccc(O)c5c4[C@@]3(CCN1CC1CC1)[C@H]2O5 [BUPRENORPHINE] | Inactive | 0 | < 4
CC(NC(C)(C)C)C(=O)c1cccc(Cl)c1 (stereo not drawn) [BUPROPION] | Inactive | 0 | < 4

System: Hepatotoxicity
Experiment: FDA HLAED, serum glutamic pyruvic transaminase (SGPT) increase
Settings: human

Compound | SGPT Increase - Activity Score | SGPT Increase - Index Value | SGPT Increase - Number of Reports
Brc1c(NC2=NCCN2)ccc2nccnc12 [BRIMONIDINE] | Inactive | 0 | < 4
CC(C)C[C@H]1C(=O)N2CCC[C@H]2[C@]2(O)O[C@](NC(=O)[C@@H]3C=C4c5cccc6[nH]c(Br)c(c56)C[C@H]4N(C)C3)(C(C)C)C(=O)N12 [BROMOCRIPTINE] | Inactive | 0 | < 4
CCCC1O[C@@H]2C[C@H]3[C@@H]4CCC5=CC(=O)C=C[C@]5(C)[C@H]4[C@@H](O)C[C@]3(C)[C@]2(C(=O)CO)O1 (stereo partly drawn) [BUDESONIDE] | Inactive | 0 | < 4
CCCCNc1cc(C(=O)O)cc(S(N)(=O)=O)c1Oc1ccccc1 [BUMETANIDE] | Inactive | 0 | < 4
CO[C@]12CC[C@@]3(C[C@@H]1[C@](C)(O)C(C)(C)C)[C@H]1Cc4ccc(O)c5c4[C@@]3(CCN1CC1CC1)[C@H]2O5 [BUPRENORPHINE] | Inactive | 0 | < 4
CC(NC(C)(C)C)C(=O)c1cccc(Cl)c1 (stereo not drawn) [BUPROPION] | Inactive | 0 | < 4
